Measurements as given in article PMC11062894, “Protein-based bandpass filters for controlling cellular signaling with chemical inputs” (Nature Chemical Biology, 2023).
Values joined by “and” are separate entries in the source; they are usually repeats but may differ in a detail not shown here. Equal entries are not always repeated.

What was measured:
Bcl2 = conditions: cited from earlier work
[1] = biological target: GEMS with the dual-drug-controlled (A-1155463, venetoclax) switch (Bcl2 and BclXL–LD3) in HEK293T cells (Homo sapiens, UniProt P10415); assay: GEMS SEAP reporter assay, dual-drug-controlled (A-1155463, venetoclax) switch; assay type: cell-based; conditions: for SEAP (U/L): Figure 2c, ON-phase
GEMS with the dual-drug-controlled (A-1155463, venetoclax) switch (Bcl2 and BclXL–LD3) in HEK293T cells, sequence (Q07817 whole entry): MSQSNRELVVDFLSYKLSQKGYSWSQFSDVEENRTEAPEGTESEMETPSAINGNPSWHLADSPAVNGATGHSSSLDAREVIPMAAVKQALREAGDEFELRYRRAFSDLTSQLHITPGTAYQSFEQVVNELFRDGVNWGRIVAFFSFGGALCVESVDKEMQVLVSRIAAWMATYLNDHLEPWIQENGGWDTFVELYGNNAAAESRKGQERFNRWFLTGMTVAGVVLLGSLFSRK
GEMS with the dual-drug-controlled (A-1155463, venetoclax) switch (Bcl2 and BclXL–LD3) in HEK293T cells, sequence (P10415 whole entry): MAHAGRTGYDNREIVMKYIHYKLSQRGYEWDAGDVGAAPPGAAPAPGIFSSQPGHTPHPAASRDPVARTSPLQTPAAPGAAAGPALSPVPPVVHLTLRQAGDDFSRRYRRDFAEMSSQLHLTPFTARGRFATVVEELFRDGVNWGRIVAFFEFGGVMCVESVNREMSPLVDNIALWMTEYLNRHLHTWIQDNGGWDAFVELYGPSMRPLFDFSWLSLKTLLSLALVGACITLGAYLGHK
Description: In the first step, we sought to construct a dual-drug-controlled switch to test whether the ON and OFF switching processes can be combined in our receptor architecture. We used Bcl2 and BclXL as the orthogonal drug receptors, which interact with the LD3 protein and respond to their own specific inhibitors. In such a setting, the dual-drug-controlled switch will turn ON in response to one drug and OFF in response to the other, thus mimicking bandpass filtering behavior (Supplementary Fig. 1d). […] To test the switch behavior, we employed the generalizable extracellular molecule sensor (GEMS) platform, which senses extracellular molecules and thus regulates cell surface signaling pathways (Fig. 2a). This receptor platform is based on a mutated EpoR extracellular and transmembrane domain fused to an IL-6RB intracellular domain. Dimerization of EpoR extracellular domains is controlled by N-terminally fused inducible dimerization domains, which drive IL-6RB activation and STAT3 signaling. The Bcl2 and BclXL–LD3 complexes were fused to the extracellular EpoR domains. […] The dimerization of Bcl2 and LD3 causes EpoR extracellular domain dimerization and triggers JAK/STAT3 signaling. Active STAT3 drives the expression of a reporter protein (secreted alkaline phosphatase (SEAP)) controlled by a STAT3-dependent promoter.
(§1) HEK293T cells were seeded in a 96-well plate 24 h before transfection. The transfection mix in each well consisted of 3 ng of constitutive human CMV promoter driven mammalian STAT3 expression vector (PhCMV-STAT3-pA), 30 ng of STAT3-induced reporter expression (OStat3-PhCMVmin-SEAP-pA) and 50 ng of expression vectors for each GEMS receptor chain (PSV40-IgK-(drughigh receptor)-EpoRm-IL-6RBm-pA and PSV40-IgK-(druglow receptor-GGGGSX3-LD3)-EpoRm-IL-6RBm-pA). For the specific drughigh receptor and druglow receptor used in the different cellular assays, they are indicated as wild type or with mutations. Then, plasmid DNA was mixed with 50 μl opti-MEM (Thermo Fisher) and 600 ng of polyethyleneimine (Polysciences, catalog no. 24765-1). For drug treatment experiments, drugs were added 12 h post-transfection and incubated with cells for 24 h before the SEAP reporter detection assay.
(§2) SEAP activity (U l^−1) in cell culture supernatants was quantified by kinetic measurements at 405 nm (1 minute per measurement for 30 cycles) of absorbance increase due to phosphatase-mediated hydrolysis of para-nitrophenyl phosphate (pNPP).
Binding affinities of SPR drug competition assays were calculated using three-parameter nonlinear regression in GraphPad Prism (v.8.3.0). Representative data of cell assays are presented as individual values and mean values (bars). n = 3 refers to biological replicates. All IC50 or EC50 values of cell assays reported were calculated using four-parameter nonlinear regression ± s.d. Bandpass features of cutoff concentrations and Bandwidth90% were estimated based on the curve fitted using bell-shaped curve nonlinear regression in GraphPad Prism (v.8.3.0).

Bcl2–LD3 interaction = Bcl2–LD3 interaction (Homo sapiens, UniProt P10415); assay: SPR drug competition assay, Bcl2–LD3; assay type: binding; conditions: for Normalization of Response units / Response units: Bcl2, Supp Fig 2a
Bcl2–LD3 interaction, sequence (P10415 1-207 limits assumed): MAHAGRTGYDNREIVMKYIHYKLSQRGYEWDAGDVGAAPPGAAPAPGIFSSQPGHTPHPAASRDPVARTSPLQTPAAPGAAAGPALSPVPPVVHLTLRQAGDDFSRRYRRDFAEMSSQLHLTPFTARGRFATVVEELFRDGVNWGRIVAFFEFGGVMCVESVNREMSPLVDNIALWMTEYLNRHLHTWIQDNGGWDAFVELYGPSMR
Method: Drug IC50 values for disrupting heterodimers were measured on a Biacore 8K device. A 5 µM portion of analyte was mixed with 10 µM of BclXL or Bcl2 inhibitors according to the analyte. The mixtures of analyte and drug were injected onto the LD3 immobilized channel.
(§3) Binding affinities of SPR drug competition assays were calculated using three-parameter nonlinear regression in GraphPad Prism (v.8.3.0). Representative data of cell assays are presented as individual values and mean values (bars). n = 3 refers to biological replicates. All IC50 or EC50 values of cell assays reported were calculated using four-parameter nonlinear regression ± s.d. Bandpass features of cutoff concentrations and Bandwidth90% were estimated based on the curve fitted using bell-shaped curve nonlinear regression in GraphPad Prism (v.8.3.0). […]
This assay is designed to test if the drug of interest can specifically disrupt the
interaction between LD3 and BclXL/Bcl2. The drug-receptors (Bcl2, BclXL) are immobilized on the
different channels of the sensor chip, then the binding sites are saturated with LD3. […]

BclXL = conditions: cited from earlier work
BclXL–LD3 interaction = BclXL–LD3 interaction (Homo sapiens, UniProt Q07817); assay: SPR drug competition assay, BclXL–LD3; assay type: binding; conditions: for Normalization of Response units / Response units: BclXL, Supp Fig 2a
BclXL–LD3 interaction, sequence (Q07817 1-209 limits assumed): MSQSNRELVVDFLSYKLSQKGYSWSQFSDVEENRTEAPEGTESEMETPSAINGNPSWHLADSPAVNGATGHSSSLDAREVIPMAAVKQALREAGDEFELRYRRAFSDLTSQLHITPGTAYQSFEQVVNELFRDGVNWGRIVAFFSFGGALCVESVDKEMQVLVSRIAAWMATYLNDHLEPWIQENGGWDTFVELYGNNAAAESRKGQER

[2] = biological target: GEMS with the dual-drug-controlled (venetoclax, A-1155463) switch (BclXL and Bcl2–LD3) in HEK293T cells (Homo sapiens, UniProt P10415); assay: GEMS SEAP reporter assay, dual-drug-controlled (venetoclax, A-1155463) switch; assay type: cell-based; conditions: for SEAP (U/L): Figure 2f, OFF-phase
GEMS with the dual-drug-controlled (venetoclax, A-1155463) switch (BclXL and Bcl2–LD3) in HEK293T cells, sequence (P10415 whole entry): as the sequence (P10415 whole entry) above
GEMS with the dual-drug-controlled (venetoclax, A-1155463) switch (BclXL and Bcl2–LD3) in HEK293T cells, sequence (Q07817 whole entry, further chain): as the sequence (Q07817 whole entry) above
Method: as §1, §2, §3

[3] = Independent repeat, A-1155463 1 nM
[4] = Independent repeat, A-1155463 10 nM
[5] = Independent repeat, A-1155463 31.6 nM
[6] = Independent repeat, A-1155463 100 nM
[7] = Representative, A-1155463 10 nM
[8] = Representative, A-1155463 31.6 nM
[9] = Representative, A-1155463 100 nM
[10] = Representative, A-1155463 316 nM

In the case of `CN(C)CC#Cc1ccc(OCCCc2sc(N3CCc4cccc(C(=O)Nc5nc6ccccc6s5)c4C3)nc2C(=O)O)c(F)c1` [A-1155463], the “binding to Bcl2 weaker than to BclXL” value (Bcl2) is listed as “more than 7,000 fold”, the EC50 ([1]; A-1155463 dose response, SEAP, read-out: EC50 of the ON phase) is listed as 23 nM and the “SEAP (U/L)” value [1, 3] is listed as 42.7182 U/L and 41.8919 U/L and 38.4512 U/L. For the same compound, the “SEAP (U/L)” value [1, 4] was 156.072 U/L and 146.503 U/L and 188.411 U/L, the “SEAP (U/L)” value [1, 5] was 331.126 U/L and 300.096 U/L and 322.732 U/L and the “SEAP (U/L)” value [1, 6] was 407.571 U/L and 388.702 U/L and 469.003 U/L. The “SEAP (U/L)” value ([1]; Representative, A-1155463 1 nM) was 15.8426 U/L and 13.5232 U/L and 13.6294 U/L, the “SEAP (U/L)” value [1, 7] was 26.67 U/L and 26.9995 U/L and 28.8916 U/L and the “SEAP (U/L)” value [1, 8] was 53.4598 U/L and 53.7585 U/L and 50.2237 U/L. For the same compound, the “SEAP (U/L)” value [1, 9] was 77.0863 U/L and 99.712 U/L and 86.8586 U/L, the “SEAP (U/L)” value [1, 10] was 74.2135 U/L and the “Normalization of Response units” value (Bcl2–LD3 interaction; A11 0.01) was 92.1843. The Response units (Bcl2–LD3 interaction; A11 0.01) was 21.2577, the “Normalization of Response units” value (Bcl2–LD3 interaction; A11 0.1) was 80.8291 and the Response units (Bcl2–LD3 interaction; A11 0.1) was 18.6392. The “Normalization of Response units” value (Bcl2–LD3 interaction; A11 1) was 73.8912, the Response units (Bcl2–LD3 interaction; A11 1) was 17.0393 and the “Normalization of Response units” value (Bcl2–LD3 interaction; A11 10) was 65.6037. For the same compound, the Response units (Bcl2–LD3 interaction; A11 10) was 15.1282, the “Normalization of Response units” value (Bcl2–LD3 interaction; A11 100) was 63.1974 and the Response units (Bcl2–LD3 interaction; A11 100) was 14.5733. For the same compound, the “Normalization of Response units” value (Bcl2–LD3 interaction; A11 1000) was 71.7979, the Response units (Bcl2–LD3 interaction; A11 1000) was 16.5566 and the “Normalization of Response units” value (Bcl2–LD3 interaction; A11 10000) was 76.7051. The Response units (Bcl2–LD3 interaction; A11 10000) was 17.6882, the “effect on the Bcl2–LD3 interaction” value (Bcl2–LD3 interaction; SPR drug competition) was “does not affect” and the Kd (BclXL) was under 0.01 nM. The “Normalization of Response units” value (BclXL–LD3 interaction; A11 0.01) was 102.002, the Response units (BclXL–LD3 interaction; A11 0.01) was 136.071 and the “Normalization of Response units” value (BclXL–LD3 interaction; A11 0.1) was 97.9313. The Response units (BclXL–LD3 interaction; A11 0.1) was 130.64, the “Normalization of Response units” value (BclXL–LD3 interaction; A11 1) was 94.098 and the Response units (BclXL–LD3 interaction; A11 1) was 125.527. The “Normalization of Response units” value (BclXL–LD3 interaction; A11 10) was 84.7556, the Response units (BclXL–LD3 interaction; A11 10) was 113.064 and the “Normalization of Response units” value (BclXL–LD3 interaction; A11 100) was 61.7671. The Response units (BclXL–LD3 interaction; A11 100) was 82.3973, the “Normalization of Response units” value (BclXL–LD3 interaction; A11 1000) was 27.7573 and the Response units (BclXL–LD3 interaction; A11 1000) was 37.0282. The “Normalization of Response units” value (BclXL–LD3 interaction; A11 10000) was 14.6141, the Response units (BclXL–LD3 interaction; A11 10000) was 19.4952 and the IC50 (BclXL–LD3 interaction; prevents BclXL from binding to LD3) was 106 nM. The IC50 ([2]; A-1155463-controlled OFF phase) was 103 nM, the “decrease in the OFF phase” value ([2]; Fig 2e) was “close to tenfold” and the “SEAP (U/L)” value ([2]; Independent repeat2, A-1155463 0.001 nM) was 136.822 U/L and 169.801 U/L and 176.875 U/L. The “SEAP (U/L)” value ([2]; Independent repeat2, A-1155463 0.1 nM) was 103.12 U/L and 204.542 U/L and 189.519 U/L, the “SEAP (U/L)” value ([2]; Independent repeat2, A-1155463 1 nM) was 92.9798 U/L and 167.805 U/L and 150.91 U/L and the “SEAP (U/L)” value ([2]; Independent repeat2, A-1155463 10 nM) was 77.7029 U/L and 130.847 U/L and 121.179 U/L. The “SEAP (U/L)” value ([2]; Independent repeat2, A-1155463 31.6 nM) was 58.2163 U/L and 85.6507 U/L and 74.3645 U/L, the “SEAP (U/L)” value ([2]; Independent repeat2, A-1155463 100 nM) was 37.6382 U/L and 39.3259 U/L and 34.7513 U/L and the “SEAP (U/L)” value ([2]; Independent repeat2, A-1155463 316 nM) was 10.089 U/L and 12.1866 U/L and 9.268 U/L. The “SEAP (U/L)” value ([2]; Independent repeat2, A-1155463 1000 nM) was 8.119 U/L and 8.577 U/L and 7.014 U/L, the “SEAP (U/L)” value ([2]; Independent repeat, A-1155463 0.001 nM) was 544.306 U/L and 608.147 U/L and 640.878 U/L and the “SEAP (U/L)” value ([2]; Independent repeat, A-1155463 0.01 nM) was 596.894 U/L and 605.557 U/L and 647.084 U/L. For the same compound, the “SEAP (U/L)” value ([2]; Independent repeat, A-1155463 0.1 nM) was 460.121 U/L and 563.478 U/L and 550.17 U/L, the “SEAP (U/L)” value [2, 3] was 534.525 U/L and 587.537 U/L and 614.263 U/L and the “SEAP (U/L)” value [2, 4] was 528.461 U/L and 563.236 U/L and 515.428 U/L. For the same compound, the “SEAP (U/L)” value [2, 5] was 441.716 U/L and 544.633 U/L and 570.455 U/L, the “SEAP (U/L)” value [2, 6] was 308.86 U/L and 496.735 U/L and 439.283 U/L and the “SEAP (U/L)” value ([2]; Independent repeat, A-1155463 316 nM) was 344.351 U/L and 390.049 U/L and 370.506 U/L. For the same compound, the “SEAP (U/L)” value ([2]; Representative, A-1155463 0.001 nM) was 452.056 U/L and 640.781 U/L and 545.972 U/L, the “SEAP (U/L)” value ([2]; Representative, A-1155463 0.01 nM) was 482.724 U/L and 651.317 U/L and 591.102 U/L and the “SEAP (U/L)” value ([2]; Representative, A-1155463 0.1 nM) was 443.461 U/L and 562.309 U/L and 475.562 U/L. For the same compound, the “SEAP (U/L)” value ([2]; Representative, A-1155463 1 nM) was 415.408 U/L and 516.033 U/L and 492.483 U/L, the “SEAP (U/L)” value [2, 7] was 401.724 U/L and 506.387 U/L and 481.044 U/L and the “SEAP (U/L)” value [2, 8] was 379.199 U/L and 421.639 U/L and 391.615 U/L. The “SEAP (U/L)” value [2, 9] was 206.108 U/L and 261.394 U/L and 267.779 U/L, the “SEAP (U/L)” value [2, 10] was 72.1001 U/L and 78.6193 U/L and 80.8054 U/L and the “SEAP (U/L)” value ([2]; Representative, A-1155463 1000 nM) was 15.1572 U/L and 16.9337 U/L and 16.4073 U/L.
